From US20130005739A1, “PHARMACEUTICAL PREPARATIONS COMPRISING A COS RELEASING COMPOUND” (LUDWIG BOLTZMANN CLUSTER FUER KARDIOVASKULAERE FORSCHUNG, priority 2009, published 2013)

Legend:
arteria pulmonalis = assay: Isometric contraction force of isolated arteria pulmonalis rings precontracted by KCl; type: cell-based, guinea pigs; conditions: Cavia porcellus; arteria pulmonalis rings precontracted by 90 mmol/l KCl
Experimental: (§1) The COS-releasing compounds according to the present invention were tested on isolated muscle-preparations of the aorta, arteria pulmonalis, terminal ileum, papillary muscle and the right atrium (derived from guinea pigs) for their vasodilatory effect.
(§2) Guinea pigs of both sexes (340-480 g) were killed with a blow on the neck. After excision of the heart, the aorta and the ileum were dissected. The aorta was cleaned of loosely adhering fat and connective tissue and cut into rings of 2 mm width. The terminal portion of the ileum was removed and the 10 cm nearest to the caecum were discarded. The intestine was placed in a nutrient solution. The intestine was cleaned by flushing with nutrient solution and cut into pieces of 2 to 3 cm length. The arteria pulmonalis was dissected close to the heart, cleaned and cut into rings of 2 mm width. Papillary muscles were dissected from the right ventricle for contractility measurements. Purkinje fibres were carefully removed to prevent spontaneous activity. Only muscles with a diameter of less than 0.87 mm were used in order to have a sufficient oxygen supply. Chronotropic activity was tested on guinea-pig isolated right atria.
(§3) After isolation the preparations (aortic rings, terminal ilea, arteria pulmonalis rings, papillary muscles and right atria) were stored at room temperature in gassed (95% O2-5% CO2) Krebs-Henseleit solution with the following composition (in mmol/l): NaCl 114.9, KCl 4.73, CaCl2 3.2, MgSO4 1.18, NaHCO3, 24.9, KH2PO4 1.18, glucose 10; pH 7.2-7.4.
(§4) Isometric contraction force of electrically stimulated papillary muscles (1 Hz), terminal ilea precontracted by 60 mmol/l KCl, aortic and arteria pulmonalis rings precontracted by 90 mmol/l KCl as well as spontaneous activity of right atria was measured by the method described by Reiter (Reiter, M. Bioassay of inotropic agents on the isolated papillary muscle. Arzneim. Forsch. 1967, 17, 1249-1253).
(§5) The preparations were placed in a continuously oxygenated (95% O2 and 5% CO2) bath of 35 ml nutrient solution to guarantee sufficient oxygen supply and appropriate pH as well as circulation of nutrient solution with and without test compound. The experiments were performed at a temperature of 37±1° C. The smooth and heart muscle preparations were connected with one end to a tissue holder and the other to a force transducer (Transbridge™, 4-Channel Transducer Amplifier, World Precision Instruments, Sarasota, Fla., USA). Papillary muscles were electrically driven with an Anapulse Stimulator Model 301-T and an Isolation Unit Model 305-1 (WPI, Hamden, Conn., USA) at a frequency of 1 Hz and a pulse duration of 3 ms. Amplitude of stimulation pulse was adjusted 10% above threshold level. Resting tension of either 3.92 mN (papillary muscles), 10.37 mN (right atria) or 19.6 mN (aortic and arteria pulmonalis rings) was kept constant throughout the experiments.
(§6) Signals were recorded with a chart recorder (BD 112 Dual Channel, Kipp & Zonen) and evaluated. For statistical analyses the arithmetic means and standard error of the mean (SEM) of n experiments were calculated. Statistical significance of the results was evaluated by the Student's t-test for paired observations. EC50-values were graphically determined from the concentration response curves.
(§7) Stock solutions of the compounds were dissolved in distilled water every day and were further diluted with modified Krebs-Henseleit solution to the required concentrations (1, 3, 10, 30 and 100 μmol/l).

terminal ileum = assay: Isometric contraction force of isolated terminal ilea precontracted by KCl; type: cell-based, guinea pigs; conditions: Cavia porcellus; terminal ilea precontracted by 60 mmol/l KCl
Experimental: as §1, §2, §3, §4, §5, §6, §7

isolated mouse heart = assay: Isolated mouse heart, Langendorff perfusion; type: cell-based, female OF-1 mice
Experimental: Hearts from female OF-1 mice were excised, cannulated and perfused retrogradely, according to the Langendorff technique, with modified oxygenated Krebs-Henseleit-buffer at constant pressure. After 15 min of baseline perfusion, CRC1HCl (10 μM) was administered into the coronary perfusion system for 10 min. Coronary flow (CF), heart rate (HR), aortic pressure (AoP), concentrations of K^+, Na^+, Ca^2+ and the pH-value were monitored throughout the whole experiment (CRC1HCl-group, n=8; control group, n=8).
In a second set of experiments in the setup as described above, nitro-L-arginine (L-NA) (n=6) and PNU-37883A (n=4) were evaluated as potential inhibitors of CRC1HCl (10 μM) activity. The compounds were added to final concentrations of 100 μM (L-NA) and 10 μM (PNU-37883A).
Also, the myocardial consumption of lactate and glucose was monitored in both the control-group and the CRC1HCl-group.

aorta = assay: Isometric contraction force of isolated aortic rings precontracted by KCl; type: cell-based, guinea pigs; conditions: for EC50: Cavia porcellus, aortic rings precontracted by 90 mmol/l KCl, Krebs-Henseleit solution, 37°C
Experimental: as §1, §2, §3, §4, §5, §6, §7

right atrium = assay: Spontaneous (chronotropic) activity of isolated right atria; type: cell-based, guinea pigs; conditions: Cavia porcellus
Experimental: as §1, §2, §3, §4, §5, §6, §7

papillary muscle = assay: Isometric contraction force of electrically stimulated papillary muscles; type: cell-based, guinea pigs; conditions: Cavia porcellus; electrically stimulated (1 Hz)
Experimental: as §1, §2, §3, §4, §5, §6, §7

[1] = tested on: smooth muscle preparations; assay: Vasodilatory activity on smooth muscle preparations (preparation not specified); type: cell-based, guinea pigs; conditions: for EC50: Cavia porcellus, setup of 4.3, preparation not specified, read-out: EC50 vasodilatory activity (negative controls); for vasodilatory activity on smooth muscle preparations: setup of 4.3, aqueous solution
Experimental: as §1, §2, §3, §4, §5, §6, §7
Compounds CRC59, CRC59HCl, CRC60 and CRC60HCl as indicated in the table below were used as negative controls in the present experimental setup. Due to the exchange of sulfur against oxygen, said compounds are not able to release COS.

[2] = Stability in aqueous solution (concluded from inactivity in aqueous setup); type: physicochemical; conditions: conditions of 4.3
Text: Some of the COS releasing compounds according to formula (I) may, however, release COS in a spontaneous hydrolysis reaction due to the presence of H2O in aqueous solutions, suspensions, and the like. Said compounds may also be referred to as being “instable compounds” in aqueous solutions. The determination of the stability of COS releasing compounds according to the present invention may easily be determined, e.g. by dissolving a compound to be tested in an aqueous solution and determining the amount of COS released over time.

aortic rings = assay: Contraction force of aortic rings in blood plasma; type: cell-based, guinea pigs; conditions: 100 μM, guinea pig blood plasma, KCl 90 mM, after 60 minutes
Experimental: Guinea pigs of both sexes (340-480 g) were killed with a blow on the neck. The thorax was opened immediately and heparinized blood was collected. After centrifugation of the blood, the blood plasma was obtained which was used in the further experiments. Further, the aorta of the guinea pigs was excised and prepared as described in 4.3. Thus, the aortic rings were present at room temperature in Krebs-Henseleit solution and put under a resting tension. The contraction force was determined as described under 4.3. A stock solution of CRC80HCl in distilled water was prepared. CRC80HCl was used in a final concentration of 100 μM in the experiments.
In a second experiment, the Krebs-Henseleit solution was exchanged with blood plasma of the guinea pigs gained as described above prior to the addition of CRC80HCl. Thus, the Krebs-Henseleit solution was exchanged by 6 ml blood plasma and KCl was added 15 minutes later to a final concentration of 90 mM. Once a steady state was reached, CRC80HCl was added to a final concentration of 100 μM and the contraction force was recorded over a period of 60 minutes. After the period of 60 minutes, a decrease of the contraction force of 39% was observed.

[3] = 10 μM, vs control, data not shown

Compound	EC50 (arteria pulmonalis) [µM]	EC50 (terminal ileum) [µM]	EC50 (aorta) [µM]	EC50 (right atrium) [µM]	EC50 (papillary muscle) [µM]	further results
CSC(=S)n1ccnc1.Cl [CRC1HCl]	6.9	5.7	7.8	> 100	78	aortic pressure (AoP) (isolated mouse heart; 10 μM for 10 min, vs control): not significantly affected or altered; concentration of Ca2+ in coronary effusate (isolated mouse heart; 10 μM for 10 min, vs control): not significantly affected or altered; concentration of K+ in coronary effusate (isolated mouse heart; 10 μM for 10 min, vs control): not significantly affected or altered; concentration of Na+ in coronary effusate (isolated mouse heart; 10 μM for 10 min, vs control): not significantly affected or altered; heart rate (HR) (isolated mouse heart; 10 μM for 10 min, vs control): not significantly affected or altered; pH-value of coronary effusate (isolated mouse heart; 10 μM for 10 min, vs control): not significantly affected or altered; coronary flow (CF) (isolated mouse heart; 10 μM for 10 min, during and 30 minutes after administration, vs control, p<0.05): significantly increased; myocardial consumption of glucose (isolated mouse heart; [3]): not significantly affected or altered; myocardial consumption of lactate (isolated mouse heart; [3]): not significantly affected or altered; effect of inhibition of ATP-sensitive potassium-channels on the vasodilatory effect (isolated mouse heart; CRC1HCl 10 μM with PNU-37883A 10 μM, data not shown): had no effect; effect of inhibition of nitric oxide synthase on the vasodilatory effect (isolated mouse heart; CRC1HCl 10 μM with nitro-L-arginine 100 μM, data not shown): had no effect
CSC(=S)n1c(C)nc2ccccc21 [CRC4HCl]	25.1	25.6	22.8	56	> 100	–
CSC(=S)n1ccnc1C [CRC5HCl]	11.2	9.5	6.3	> 100	> 100	–
COc1ccc2ncn(C(=S)SC)c2c1 [CRC6]	–	–	–	–	–	melting point: 64 to 87 °C
S=C(SCc1ccccc1)n1ccnc1 [CRC8HCl]	63	15.3	20.1	> 100	26	–
Cc1nccn1C(=S)SCc1ccccc1 [CRC9HCl]	10.5	17.2	3.36	15.3	> 100	–
COc1ccc(CSC(=S)n2ccnc2)cc1 [CRC10HCl]	24	100	12.8	> 100	> 100	–
CCOC(=O)CCSC(=S)n1ccnc1 [CRC11HCl]	19.8	32.1	16	> 100	> 100	–
CC(=O)OCCSC(=S)n1ccnc1 [CRC13HCl]	24	100	5.75	> 100	77	–
COc1cc(CSC(=S)n2ccnc2)cc(OC)c1OC [CRC33]	7.9	15.3	2.98	26.5	> 100	melting point: 110 to 113 °C
Cl.O=C(OC1CCCCC1)n1ccnc1 [CRC59HCl]	–	–	–	–	–	EC50 [1]: > 100 µM; vasodilatory activity on smooth muscle preparations [1]: did not show vasodilatory activity
O=C(OC1CCCCC1)n1ccnc1 [CRC59]	–	–	–	–	–	vasodilatory activity on smooth muscle preparations [1]: did not show vasodilatory activity
CC(C)OC(=O)n1ccnc1.Cl [CRC60HCl]	–	–	–	–	–	EC50 [1]: > 100 µM; vasodilatory activity on smooth muscle preparations [1]: did not show vasodilatory activity
CC(C)OC(=O)n1ccnc1 [CRC60]	–	–	–	–	–	vasodilatory activity on smooth muscle preparations [1]: did not show vasodilatory activity
S=C(N1CCN(C(=S)n2ccnc2)CC1)n1ccnc1 [CRC66]	–	–	–	–	–	melting point: 225 to 226 °C
CN(C)CCOC(=S)OCCN(C)C.Cl.Cl [CRC72HCl]	–	–	–	–	–	stability in aqueous solutions [2]: stable in aqueous solutions; vasodilatory activity on smooth muscle preparations [1]: inactive
CCOC(=S)OCCCN(C)C.Cl [CRC80HCl]	–	–	–	–	–	vasodilatory activity on the aortic ring in Krebs-Henseleit solution (aorta; 100 μM, period of 45 minutes): did not show a vasodilatory activity; decrease of the contraction force (aortic rings): 39%
S [H2S, hydrogen sulfide, reference compound]	–	–	107	–	–	–
